Common to all, as to test: relative viability (nuclei count vs DMSO), 5 days (fraction); higher = more cells survive
Compound in experiment [1]: C1CC(C1)(C(=O)O)C(=O)O.[NH2-].[NH2-].[Pt+2] [Carboplatin] + Cc1nc(NC(=O)N2CCC[C@H]2C(N)=O)sc1-c1ccnc(C(C)(C)C(F)(F)F)c1 [Alpelisib] (partner 2 µM)
In short, it runs like this:
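Cells from lung cancer lines were seeded into 1536-well plates and, one day later, dosed by pin tool. Treatments were either a single drug or a fixed dose of an anchor drug with five library-drug doses (not always all listed) in √10 steps. After 5 days, nuclei were stained in a one-step fixation (final 0.05% Triton X-100, 1% formaldehyde, 1 ug/ml Hoechst) and counted on 4× images, and relative viability is the treated-to-vehicle nuclei ratio, as the median of duplicate plates.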

Compound in experiment [2]: C1CC(C1)(C(=O)O)C(=O)O.[NH2-].[NH2-].[Pt+2] [Carboplatin]
In outline: (§1)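 Lung cancer cell lines in 1536-well plates were exposed by pinning to five library-drug doses (not always all listed) √10 apart, following an overnight hold at 37 °C. MetaXpress counted Hoechst-stained nuclei from 4× images taken after 5 days without medium change. Viability is the median ratio of treated-well to vehicle-well nuclei across plates. Plates required control CV below 25% and at least one doubling.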

Compound in experiment [3]: CC[C@H](C)N1C=C(C2=C(C=C(C=C21)C3=CN=C(C=C3)N4CCNCC4)C(=O)NCC5=C(C=C(NC5=O)C)C)C [GSK126]
In short, it runs like this: as §1

Compound in experiment [4]: NS(=O)(=O)OC[C@@H]1C[C@@H](n2ccc3c(N[C@H]4CCc5ccccc54)ncnc32)C[C@@H]1O [MLN4924]
In short, it runs like this:
as §1

Turning to UMC-11, the relative viability in experiment [1] (first compound 0.08 µM) turned out to be 1; in experiment [1] (first compound 0.253 µM), 0.96; in experiment [1] (first compound 0.8 µM), 0.827; in experiment [1] (first compound 2.53 µM), 0.955; in experiment [1] (first compound 8 µM), 0.588; in experiment [2] (0.08 µM), 0.982. The relative viability in experiment [2] (0.253 µM) amounted to 0.996; in experiment [2] (0.8 µM), 1.01; in experiment [2] (2.53 µM), 0.923; in experiment [2] (8 µM), 0.767; in experiment [3] (0.08 µM), 1.09; in experiment [3] (0.253 µM) it was 0.982. For the same cell line, the relative viability in experiment [3] (0.8 µM) was found to be 1.02; in experiment [3] (2.53 µM) it was 1.01; in experiment [3] (8 µM), 1.11; in experiment [4] (0.04 µM), 0.678; in experiment [4] (0.1265 µM), 0.463; in experiment [4] (0.4 µM) it was 0.383. Besides, the values for the relative viability in experiment [4] (1.265 µM) and in experiment [4] (4 µM) were 0.189 and 0.19, respectively.
